For this test, the target named is T1, HM74A receptor (Homo sapiens, UniProt Q8TDS4).
T1 construct: expressed in transfected cells; host or cells: HEK-293 cells (stably transfected), membrane preparation
The test is described as follows: Primary radiolabelled ligand competition binding assay ([3H]-nicotinic acid). Particulars: inhibition of [3H]-nicotinic acid binding, membranes of HEK-293 cells stably transfected with the HM74A receptor. How it is done:
Primary Radiolabelled Ligand Competition Binding Assay
Nicotinic acid binding assays were performed with membrane preparations. A cell pellet containing 1×10^8 HEK-293 cells, stably transfected with the HM74A receptor, was resuspended in 3 ml of ice cold Dounce Buffer (10 mM Tris-Cl pH 7.6, 0.5 mM MgCl2) supplemented with Roche protease inhibitor cocktail and homogenized at high speed on a Polytron homogenizer two times for 20 sec on ice. Nuclei and unbroken cells were removed by centrifugation for 5 min at 1,000×g after the addition of 1 ml of tonicity restoration buffer (10 mM Tris pH 7.6, 0.5 mM MgCl2, 600 mM NaCl). The homogenate was centrifuged at 60,000×g for 30 min and pellets were resuspended in Tris buffer (50 mM Tris pH 7.4, containing protease inhibitors). Binding reactions contained 20 µg membranes as determined by BCA protein assay (Pierce), 50 nM [^3H]-nicotinic acid (Amersham) with or without compound addition in 250 μl of binding buffer (50 mM Tris pH 7.4, 2 mM MgCl2, 0.02% CHAPS). […] Bound [^3H]-nicotinic acid was determined by scintillation counting using Top Count NXT (PerkinElmer). […] The effects of compounds were expressed as % inhibition of [^3H]-nicotinic acid binding. Sigmoidal curves were fitted using the XLfit3 program (ID Business Solutions Ltd. UK) and IC50 values determined.

This note sets out measurements from patent US7928106B2, “Aza-pyridopyrimidinone derivatives” (Hoffmann-La Roche Inc., priority 2007, dated 2011).

The term IC50 denotes the concentration that inhibits the measured activity by half. A low value points to greater potency in that assay.

T1 sequence (Q8TDS4 whole entry): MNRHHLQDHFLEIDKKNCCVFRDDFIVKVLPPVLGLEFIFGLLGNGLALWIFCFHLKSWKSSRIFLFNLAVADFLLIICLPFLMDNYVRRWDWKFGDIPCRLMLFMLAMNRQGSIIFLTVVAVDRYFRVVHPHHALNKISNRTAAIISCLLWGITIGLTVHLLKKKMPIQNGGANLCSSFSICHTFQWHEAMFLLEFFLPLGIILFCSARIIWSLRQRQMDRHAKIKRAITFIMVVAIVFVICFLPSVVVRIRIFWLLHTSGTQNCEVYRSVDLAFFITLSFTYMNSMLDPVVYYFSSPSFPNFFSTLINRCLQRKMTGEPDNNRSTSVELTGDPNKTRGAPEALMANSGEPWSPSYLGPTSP

With `O=c1[nH]c(COCCc2cccc(Cl)c2)nc2nnccc12` [Example 7, 7-[2-(3-Chloro-phenyl)-ethoxymethyl]-6H-pyrimido[4,5-c]pyridazin-5-one], the IC50 worked out at 668 nM.

In turn, `O=c1[nH]c(COCCc2cc(F)ccc2F)nc2nccnc12` [Example 2, 2-[2-(2,5-Difluoro-phenyl)-ethoxymethyl]-3H-pteridin-4-one] gave an IC50 of 2390 nM.
